The values below come from patent publication US20190375786A1, “STABLE PEPTIDES AND METHODS OF USE THEREOF” (Fred Hutchinson Cancer Research Center, priority 2016, published 2019).

Molecules are shown by their SMILES. Positions of bridges follow the written chain, without caps; N, C: chain ends. Residues, ends and D or L forms follow the SMILES beside them.

One data set addresses pepsin (Sus scrofa, UniProt P00791). Briefly: Pepsin digestion resistance in simulated gastric fluid, RP-HPLC. The format is in vitro ADME, porcine. The arrangement: purchased Sigma Aldrich P7012. As to conditions: 500 U/ml pepsin in SGF pH 1.05, 30 minutes at 37.5° C.; HPLC peak vs untreated peptide. A digest of the protocol: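 Digestion resistance read by reversed-phase HPLC (C-18, 0.1% TFA, 5–45% acetonitrile over 10 min; 214/280 nm) after 12.5 μg peptide spent 30 min at 37.5 °C in pH 1.05 simulated gastric fluid, with or without 500 U/ml pepsin. Some samples quenched with Tris base and DTT.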

A further data set deals with trypsin (Sus scrofa, UniProt P00761). Briefly: Trypsin digestion resistance of soluble peptide, RP-HPLC. The format is in vitro ADME, porcine. The arrangement: purchased Sigma Aldrich 6567. Conditions: 500 U/ml trypsin, 30 minutes at 37.5° C.; HPLC peak vs untreated peptide. Summed up:
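Read-out was RP-HPLC (C-18, water/acetonitrile with 0.1% TFA, 5-45% over 10 min) of peptide left after trypsin treatment. Digest: 12.5 μg peptide, 500 U/ml porcine trypsin, PBS, 37.5° C for 30 min, stopped by soybean trypsin inhibitor; samples then reduced (10 mM DTT) or left non-reduced.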

Sequence of pepsin (P00791 60-385): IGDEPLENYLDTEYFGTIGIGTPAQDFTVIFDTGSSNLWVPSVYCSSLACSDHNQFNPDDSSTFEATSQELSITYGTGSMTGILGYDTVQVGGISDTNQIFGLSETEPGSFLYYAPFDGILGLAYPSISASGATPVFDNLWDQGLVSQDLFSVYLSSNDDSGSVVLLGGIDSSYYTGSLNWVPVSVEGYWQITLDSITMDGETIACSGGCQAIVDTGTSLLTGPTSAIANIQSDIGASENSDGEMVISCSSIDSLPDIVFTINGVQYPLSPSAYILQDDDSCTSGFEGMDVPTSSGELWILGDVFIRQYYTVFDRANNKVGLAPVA
Sequence of trypsin (P00761 9-231): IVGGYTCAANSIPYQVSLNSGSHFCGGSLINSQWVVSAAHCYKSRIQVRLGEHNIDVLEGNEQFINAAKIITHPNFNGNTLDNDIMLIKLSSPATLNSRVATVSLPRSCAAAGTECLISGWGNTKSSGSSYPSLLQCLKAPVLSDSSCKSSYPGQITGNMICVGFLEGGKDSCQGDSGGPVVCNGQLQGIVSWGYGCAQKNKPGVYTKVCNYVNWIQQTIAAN

For `CC[C@H](C)[C@@H]1NC(=O)[C@@H]2CSSC[C@H](NC(=O)[C@H](CCCCN)NC(=O)[C@@H](NC(=O)[C@H](CC(N)=O)NC(=O)[C@@H](NC(=O)[C@@H]3CCCN3C(=O)[C@@H](NC(=O)CNC(=O)[C@H](CO)NC(=O)CN)C(C)C)[C@@H](C)CC)C(C)C)C(=O)N[C@@H](CCCNC(=N)N)C(=O)NCC(=O)N[C@@H](CO)C(=O)N[C@@H](CCCNC(=N)N)C(=O)N[C@@H](CC(=O)O)C(=O)N[C@H]3CSSC[C@H](NC(=O)[C@H](CCCCN)NC(=O)[C@H](CO)NC(=O)[C@H](CC(N)=O)NC1=O)C(=O)N[C@@H](Cc1c[nH]cn1)C(=O)N[C@H](C(=O)N[C@H](C(=O)N1CCC[C@H]1C(=O)O)[C@@H](C)O)CSSC[C@H](NC(=O)[C@@H]1CCCN1C(=O)[C@H](CC(=O)O)NC(=O)[C@H](CC(C)C)NC3=O)C(=O)N[C@@H](CCCCN)C(=O)N[C@@H](CCCCN)C(=O)N[C@@H](C)C(=O)NCC(=O)N[C@@H](CCSC)C(=O)N[C@@H](CCCNC(=N)N)C(=O)N[C@@H](Cc1ccccc1)C(=O)NCC(=O)N[C@@H](CCCCN)C(=O)N2` [compound 27] (H-GSGVPINVKCRGSRDCLDPCKKAGMRFGKCINSKCHCTP-OH; disulfide 10-30, 16-35, 20-37), the “Resistance to Pepsin (500 U/ml)” value at pepsin is “High (A peptide classified as high indicates that the majority (at least 75%) of the HPLC peak of the treated peptide is still present as compared to the HPLC peak of the untreated peptide)”. For the same compound, the “Resistance to Trypsin (500 U/ml)” value at trypsin is “High (A peptide classified as high indicates that the majority (at least 75%) of the HPLC peak of the treated peptide is still present as compared to the HPLC peak of the untreated peptide)”.

On to `CC[C@H](C)[C@@H]1NC(=O)[C@@H](NC(=O)[C@H](CC(=O)O)NC(=O)[C@H](CCCCN)NC(=O)[C@H](CCC(=O)O)NC(=O)[C@H](CO)NC(=O)[C@H](CO)NC(=O)CN)CSSC[C@@H]2NC(=O)[C@@H]3CSSC[C@@H](C(=O)N[C@@H](CCCNC(=N)N)C(=O)O)NC(=O)[C@H](CCCNC(=N)N)NC(=O)[C@H](CCCCN)NC(=O)[C@H](CCC(=O)O)NC(=O)[C@@H]4CCCN4C(=O)[C@H](CC(N)=O)NC(=O)[C@H]([C@@H](C)O)NC(=O)CNC(=O)[C@H](CCCNC(=N)N)NC(=O)[C@H](CCCNC(=N)N)NC(=O)[C@H](CO)NC(=O)[C@H](CSSC[C@H](NC(=O)[C@H](CCCNC(=N)N)NC(=O)[C@H](CCC(N)=O)NC(=O)[C@H](CC(C)C)NC(=O)[C@H](Cc4c[nH]cn4)NC(=O)[C@H](CCCCN)NC1=O)C(=O)N[C@@H](CCCNC(=N)N)C(=O)N[C@@H](CCC(=O)O)C(=O)N[C@@H](CC(N)=O)C(=O)N[C@@H](CCCCN)C(=O)N[C@@H](CC(=O)O)C(=O)N3)NC(=O)[C@H](CCCCN)NC(=O)[C@H](CCCCN)NC(=O)[C@H](CO)NC2=O` [compound 29] (H-GSSEKDCIKHLQRCRENKDCCSKKCSRRGTNPEKRCR-OH; disulfide 7-21, 14-25, 20-36), for which the “Resistance to Pepsin (500 U/ml)” value on pepsin is “High (A peptide classified as high indicates that the majority (at least 75%) of the HPLC peak of the treated peptide is still present as compared to the HPLC peak of the untreated peptide)”. The “Resistance to Trypsin (500 U/ml)” value on trypsin is “Low (A peptide classified as low indicates that the majority (over 75%) of the HPLC peak of the treated peptide disappeared as compared to the HPLC peak of the untreated peptide)”.

Regarding `CC[C@H](C)[C@@H]1NC(=O)[C@H](CCC(=O)O)NC(=O)[C@H](CCCNC(=N)N)NC(=O)[C@H](CCCNC(=N)N)NC(=O)[C@@H]2CSSC[C@@H](C(=O)N[C@@H](Cc3ccc(O)cc3)C(=O)N[C@@H](CCCNC(=N)N)C(=O)N[C@@H](CC(N)=O)C(=O)O)NC(=O)[C@H](C(C)C)NC(=O)[C@@H]3CSSC[C@H](NC(=O)[C@H](CO)NC(=O)CNC(=O)CNC(=O)[C@H](CCC(N)=O)NC(=O)[C@@H](NC(=O)[C@H](CCCCN)NC(=O)[C@@H](NC(=O)[C@H](CC(N)=O)NC(=O)[C@@H](NC(=O)[C@H](CCC(N)=O)NC(=O)[C@@H](NC(=O)[C@H](CCC(N)=O)NC(=O)[C@H](CO)NC(=O)CN)C(C)C)[C@@H](C)O)C(C)C)CSSC[C@H](NC(=O)[C@H](CCCCN)NC(=O)CNC(=O)[C@H](C)NC(=O)[C@H](C)NC(=O)[C@H](C(C)C)NC(=O)CNC1=O)C(=O)N[C@@H]([C@@H](C)CC)C(=O)N[C@@H](CC(N)=O)C(=O)NCC(=O)N[C@@H](CCCCN)C(=O)N3)C(=O)N[C@@H](C)C(=O)N[C@@H](CO)C(=O)N[C@@H](C(C)C)C(=O)N2` [compound 30] (H-GSQVQTNVKCQGGSCASVCRREIGVAAGKCINGKCVCYRN-OH; disulfide 10-30, 15-35, 19-37), the “Resistance to Pepsin (500 U/ml)” value at pepsin is “Moderate (A peptide classified as medium indicates that about half (between 25% and 75%) of the HPLC peak of the treated peptide disappeared as compared to the HPLC peak of the untreated peptide)”. The “Resistance to Trypsin (500 U/ml)” value at trypsin was “Low (A peptide classified as low indicates that the majority (over 75%) of the HPLC peak of the treated peptide disappeared as compared to the HPLC peak of the untreated peptide)”.

`CC[C@H](C)[C@@H]1NC(=O)[C@@H]2CSSC[C@H](NC(=O)[C@H](CCCCN)NC(=O)[C@@H](NC(=O)[C@H](CC(N)=O)NC(=O)[C@@H](NC(=O)[C@H](CC(=O)O)NC(=O)[C@@H](NC(=O)[C@H](CCC(N)=O)NC(=O)[C@H](CO)NC(=O)CN)[C@@H](C)CC)[C@@H](C)O)C(C)C)C(=O)N[C@@H](CO)C(=O)NCC(=O)N[C@@H](CO)C(=O)N[C@@H](CO)C(=O)N[C@@H](CCCCN)C(=O)N[C@H]3CSSC[C@H](NC(=O)[C@H](CCCNC(=N)N)NC(=O)CNC(=O)[C@H](CC(N)=O)NC1=O)C(=O)N[C@@H]([C@@H](C)O)C(=O)N[C@H](C(=O)N[C@@H](Cc1ccc(O)cc1)C(=O)N1CCC[C@H]1C(=O)O)CSSC[C@H](NC(=O)[C@H]([C@@H](C)CC)NC(=O)[C@H](CCCCN)NC(=O)[C@H](C(C)C)NC3=O)C(=O)N[C@@H]([C@@H](C)CC)C(=O)N[C@@H](CC(=O)O)C(=O)N[C@@H](CCCNC(=N)N)C(=O)N[C@@H](Cc1ccc(O)cc1)C(=O)N[C@@H](CC(N)=O)C(=O)N[C@@H]([C@@H](C)O)C(=O)N[C@@H](CCCNC(=N)N)C(=O)NCC(=O)N[C@@H](C)C(=O)N[C@@H](CCCCN)C(=O)N2` [compound 35] (H-GSQIDTNVKCSGSSKCVKICIDRYNTRGAKCINGRCTCYP-OH; disulfide 10-31, 16-36, 20-38): on pepsin, the “Resistance to Pepsin (500 U/ml)” value was “Low (A peptide classified as low indicates that the majority (over 75%) of the HPLC peak of the treated peptide disappeared as compared to the HPLC peak of the untreated peptide)”. At trypsin, the “Resistance to Trypsin (500 U/ml)” value is “Low (A peptide classified as low indicates that the majority (over 75%) of the HPLC peak of the treated peptide disappeared as compared to the HPLC peak of the untreated peptide)”.

As to `CC[C@H](C)[C@H](NC(=O)[C@@H](NC(=O)[C@@H](NC(=O)[C@H](CO)NC(=O)CN)C(C)C)C(C)C)C(=O)NCC(=O)N[C@@H](CCC(N)=O)C(=O)N[C@@H](CCCNC(=N)N)C(=O)N[C@H]1CSSC[C@@H]2NC(=O)[C@H](CCCCN)NC(=O)CNC(=O)[C@H]([C@@H](C)O)NC(=O)[C@H](C)NC(=O)[C@H](CCCCN)NC(=O)CNC(=O)[C@H](C(C)C)NC(=O)[C@H](CC(C)C)NC(=O)[C@H](CCCCN)NC(=O)[C@H](CCCCN)NC(=O)[C@@H]3CSSC[C@@H](C(=O)O)NC(=O)[C@H](CC(=O)O)NC(=O)[C@H](CSSC[C@H](NC(=O)[C@H](CC(=O)O)NC(=O)[C@@H]4CCCN4C(=O)[C@H](CO)NC(=O)[C@H](CCCNC(=N)N)NC(=O)[C@H](Cc4ccc(O)cc4)NC1=O)C(=O)N[C@@H](Cc1ccc(O)cc1)C(=O)N[C@@H](CO)C(=O)N[C@@H](C)C(=O)N3)NC(=O)[C@H](CCCNC(=N)N)NC(=O)CNC(=O)[C@H](CC(N)=O)NC(=O)[C@H]([C@@H](C)O)NC2=O` [compound 36] (H-GSVVIGQRCYRSPDCYSACKKLVGKATGKCTNGRCDC-OH; disulfide 9-30, 15-35, 19-37), the “Resistance to Pepsin (500 U/ml)” value at pepsin is given as “High (A peptide classified as high indicates that the majority (at least 75%) of the HPLC peak of the treated peptide is still present as compared to the HPLC peak of the untreated peptide)”. In addition, the “Resistance to Trypsin (500 U/ml)” value at trypsin is reported as “Low (A peptide classified as low indicates that the majority (over 75%) of the HPLC peak of the treated peptide disappeared as compared to the HPLC peak of the untreated peptide)”.

Turning to `CC[C@H](C)[C@@H]1NC(=O)[C@H](C)NC(=O)[C@H](CCC(=O)O)NC(=O)[C@H](CCCCN)NC(=O)[C@@H]2CSSC[C@@H](C(=O)N[C@@H](Cc3ccc(O)cc3)C(=O)N3CCC[C@H]3C(=O)O)NC(=O)[C@H](CCCCN)NC(=O)[C@@H]3CSSC[C@H](NC(=O)[C@H](CCC(=O)O)NC(=O)[C@@H]4CCCN4C(=O)[C@H](CO)NC(=O)CNC(=O)[C@H](CCCNC(=N)N)NC(=O)[C@@H](NC(=O)[C@H](CCCCN)NC(=O)[C@@H](NC(=O)[C@H](CC(N)=O)NC(=O)[C@@H](NC(=O)[C@H](Cc4ccccc4)NC(=O)[C@@H](NC(=O)[C@H](CO)NC(=O)CN)C(C)C)[C@@H](C)CC)C(C)C)CSSC[C@H](NC(=O)[C@H](CCCCN)NC(=O)CNC(=O)[C@H](C)NC(=O)[C@H](CO)NC(=O)[C@H](CCCCN)NC(=O)CNC1=O)C(=O)N[C@@H](CCSC)C(=O)N[C@@H](CC(N)=O)C(=O)NCC(=O)N[C@@H](CCCCN)C(=O)N3)C(=O)N[C@@H](CC(C)C)C(=O)N1CCC[C@H]1C(=O)N[C@@H](CCCCN)C(=O)N2` [compound 37] (H-GSVFINVKCRGSPECLPKCKEAIGKSAGKCMNGKCKCYP-OH; disulfide 9-30, 15-35, 19-37), at pepsin, the “Resistance to Pepsin (500 U/ml)” value is on record as “High (A peptide classified as high indicates that the majority (at least 75%) of the HPLC peak of the treated peptide is still present as compared to the HPLC peak of the untreated peptide)”. In addition, the “Resistance to Trypsin (500 U/ml)” value on trypsin is “Low (A peptide classified as low indicates that the majority (over 75%) of the HPLC peak of the treated peptide disappeared as compared to the HPLC peak of the untreated peptide)”.
